1 compound from patent US20210293825A1, “METHODS FOR PRECISION THERAPEUTIC TARGETING OF HUMAN CANCER CELL MOTILITY AND KITS THEREOF” (UNITED STATES GOVERNMENT AS REPRESENTED BY THE DEPARTMENT …, priority 2018, published 2021) can be followed below.

For series [1], the system named is human cord blood CD34+ stem cells. The experiment in a line: Hematopoietic stem cell colony formation assay. The class given is cell-based. Conditions: colonies at 14 days. From the text: FIG. 1a is a schematic flow of probe synthesis and development strategy. […] Values are mean±SEM of a single experiment in replicates of N=4, with similar findings in multiple separate experiments (also N=4). […] Values are mean±SEM of a single experiment in replicates of N=24, with similar findings in a separate experiment (also N=24). *Denotes Student's t test P value <0.05, compared to controls. […] Values are mean±SEM from N>2 separate experiments, each in replicates of N=3. […] Values are the mean±SD number of total, CFU-GM, CFU-GEMM or BFU-E colonies at 14 days after treatment with KBU2046, from a single experiment in replicates of N=2. […] Values are the mean±SD of a single experiment, with similar results seen in a separate experiment, both in replicates of N=2.
Hematopoietic Stem Cell Colony Formation Assay. Fourteen-day colony formation assays were conducted as described (Bergan, R. et al., Blood 88, 731-41 (1996)), using human cord blood CD34+ stem cells (AllCells Inc.), using MethoCultExpress™ colony growth media (StemCell Technologies Inc.), performed in replicates of N=2.

The test system of series [2] is phosphorylated Ser226 on HSP90β. The series can be described thus: PhosphoScan LC-MS/MS proteomic analysis in PC3 cells. The class given is cell-based, human. As to conditions: 10 μM 3 days, then TGFβ. As for the experimental part: The 83 kDa protein was identified by pretreating PC3 cells with KBU2046 or vehicle control, treating with TGFβ and performing LC-MS/MS analysis on proteins pulled down by the KinomeView® antibody used in FIG. 4a. Resultant data were analyzed with the SEQUEST/Sorcerer data analysis suite, and proteins further selected based upon predetermined parameters (FIG. 19).
Phospho-proteomic Analysis. The Kinoview™ and PhosphoScan™ assays were performed by Cell Signaling Technology Inc.
Proteins bound in this manner were analyzed in replicates of N=2 using PhosphoScan™ technology. This identified 483 phosphopeptide assignments from 306 parent proteins, with a mean false discovery rate of 0.30% (estimated via Sorcerer search of composite human database of forward and reverse protein entries). Proteins were considered if the average values for treatment and control were each 3 times that of background. Further, it was required that each of the N=2 replicate values (used to calculate the average) to be >/=2.5 fold above background. Interest was focused on which protein decreased with KBU2046, and it was required that the decrease be >/=2.5 fold, compared to control. According to these parameters, there were 19 phospho-proteins whose expression decreased in cells treated with KBU2046, compared to control. These are depicted herein. […]

Series [3] concerns the target T1, HSP90β/CDC37 heterocomplexes (Homo sapiens, UniProt P08238+Q16543).
T1 construct: made in house; host or cells: E. coli (Rosetta BL-21 for HSP90B, BL-21 DE-3 for CDC37)
The experiment in a line: DARTS assay with HSP90β and CDC37 combined. The class given is binding. As for the experimental part: Equimolar amounts of HSP90β and CDC37 protein were pre-incubated with KBU2046, and resultant thermolysin reaction products were detected by silver stain following SDS-PAGE.
DARTS provides a sensitive measure of ligand-induced changes in protein structure and dynamics by measuring the ability of a ligand to protect its target from protease digestion (Lomenick, B. et al., Proc Natl Acad Sci USA 106, 21984-9 (2009)). […] The intensity of the CDC37 band increased, that of the HSP90β degradation product decreased, and both effects were statistically significant, concentration-dependent and were evident at 10 nM. […] Further, these findings also indicate that KBU2046 is not acting as a classical HSP90 inhibitor.
(§1) Biophysical and Biochemical Binding Assays. Fluorescent thermal shift (Krishna, S. N. et al., PLoS One 8, e81504 (2013)), isothermal titration calorimetry (Chavez, J. D. et al., Mol Cell Proteomics 12, 1451-67 (2013)), and biolayer interferometry assays (Makowska-Grzyska, M. et al., Biochemistry 51, 6148-63 (2012)), were performed using MEK4EE (37-399, S257E, T261E) cloned into pMCSG7 and KRX Competent E. coli cells (Promega Inc.) and full-length HSP90B and CDC37 vectors and Rosetta BL-21 and BL-21 DE-3 competent E. coli cells, respectively. […]

The target in the next series is T2, MKK4 (Homo sapiens, UniProt P45985, S257E/T261E).
T2 sequence (P45985 37-399 S257E/T261E): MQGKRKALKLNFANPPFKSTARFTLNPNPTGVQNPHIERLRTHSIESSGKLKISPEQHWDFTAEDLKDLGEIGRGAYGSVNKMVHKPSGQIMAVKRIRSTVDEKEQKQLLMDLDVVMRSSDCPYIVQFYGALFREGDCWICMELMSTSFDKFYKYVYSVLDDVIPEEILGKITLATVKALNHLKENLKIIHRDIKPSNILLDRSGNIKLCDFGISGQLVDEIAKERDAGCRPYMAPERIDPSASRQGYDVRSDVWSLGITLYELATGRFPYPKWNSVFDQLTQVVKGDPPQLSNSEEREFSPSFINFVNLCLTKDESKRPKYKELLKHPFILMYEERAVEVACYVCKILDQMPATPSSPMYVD
The series can be described thus: Fluorescence-based thermal shift assay, MKK4. It counts as binding. More on the design: made in house. As for the experimental part: FIG. 16a is a depiction of established MKK4 pathway regulating human PCa cell metastasis. […] Values are the mean±SD (of N=2 replicates) increase in melting temperature (ΔTm) of purified recombinant MKK4 induced by the indicated concentrations of KBU2046 or genistein. […] The indicated concentrations of KBU2046 were added to recombinant activated MKK4, and its ability to phosphorylate kinase dead p38a MAPK (K53A) was measured by Western blot for total (p38 MAPK) and phosphorylated (pp38 MAPK) forms of p38 MAPK. […] PC3-M cells were pre-treated for 24 hours with 50 μM KBU2046 or genistein, as indicated, then with TGFβ, and Western blot performed. These findings are from a single experiment, with similar findings in identical separate experiments, repeated at least once.
as §1

T1 sequence (P08238 whole entry): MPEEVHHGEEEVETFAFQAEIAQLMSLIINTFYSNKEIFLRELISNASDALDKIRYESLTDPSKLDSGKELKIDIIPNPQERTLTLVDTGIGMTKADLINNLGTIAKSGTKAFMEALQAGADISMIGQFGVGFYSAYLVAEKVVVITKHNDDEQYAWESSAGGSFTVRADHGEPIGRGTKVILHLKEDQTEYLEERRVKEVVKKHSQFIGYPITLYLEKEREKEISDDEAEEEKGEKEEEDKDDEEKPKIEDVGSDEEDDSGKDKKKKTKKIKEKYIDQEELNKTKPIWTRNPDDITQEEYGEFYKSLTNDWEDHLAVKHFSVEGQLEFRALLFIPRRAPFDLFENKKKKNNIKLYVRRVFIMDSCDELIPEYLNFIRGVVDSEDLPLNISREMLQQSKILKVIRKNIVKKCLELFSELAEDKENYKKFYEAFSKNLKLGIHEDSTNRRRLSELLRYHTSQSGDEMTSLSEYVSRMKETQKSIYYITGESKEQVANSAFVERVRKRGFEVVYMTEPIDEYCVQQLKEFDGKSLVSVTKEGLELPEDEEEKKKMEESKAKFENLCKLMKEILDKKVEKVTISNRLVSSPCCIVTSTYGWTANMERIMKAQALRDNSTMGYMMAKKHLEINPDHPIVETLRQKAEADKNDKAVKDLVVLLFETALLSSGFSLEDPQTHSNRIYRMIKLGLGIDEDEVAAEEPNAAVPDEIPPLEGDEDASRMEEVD
T1 sequence (Q16543 whole entry): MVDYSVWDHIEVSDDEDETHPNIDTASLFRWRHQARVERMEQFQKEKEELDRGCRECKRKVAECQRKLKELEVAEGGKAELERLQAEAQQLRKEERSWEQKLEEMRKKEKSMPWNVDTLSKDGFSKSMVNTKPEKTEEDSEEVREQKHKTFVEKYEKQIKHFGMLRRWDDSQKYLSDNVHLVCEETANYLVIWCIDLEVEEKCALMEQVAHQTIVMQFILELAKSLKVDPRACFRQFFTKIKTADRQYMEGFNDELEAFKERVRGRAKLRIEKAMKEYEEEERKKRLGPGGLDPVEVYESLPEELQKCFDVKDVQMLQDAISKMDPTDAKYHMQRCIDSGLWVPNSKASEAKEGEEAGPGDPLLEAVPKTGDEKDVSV

With `O=C1c2ccccc2OCC1c1ccc(F)cc1` (racemic) [KBU2046, (±)-3(4-fluorophenyl)chroman-4-one], the “toxicity to human bone marrow stem cells” value in series [1] was “not toxic”. Besides, in series [2], the “decrease of abundance of phosphorylated Ser226 on HSP90β” value was 6.6 fold. The “concentration at which effects on CDC37 and HSP90β bands were evident” value in series [3] (concentration-dependent) is 10 nM. The “protection from thermolysin digestion” value in series [3] (equimolar HSP90β and CDC37) is on record as “protected both proteins from digestion”. Moreover, the “binding to MKK4” value on MKK4 was “did not bind to MKK4”.
